Test results as given in ChEMBL document CHEMBL3797106, “Potent and Selective Agonists of Sphingosine 1-Phosphate 1 (S1P1): Discovery and SAR of a Novel Isoxazole Based Series” (J Med Chem, 2016).
Activity calls are given as the source filed them. No cut-off for these calls is given here.

Legend:
Cynomolgus monkey = assay: Clearance in cynomolgus monkey at 2 mg/kg, iv relative to hepatic blood flow; assay type: ADME, organism-based, Macaca fascicularis; conditions: in vivo
[1] = Half life in rat at 2 mg/kg, iv; assay type: ADME, organism-based; conditions: in vivo
[2] = Half life in mouse at 2 mg/kg, iv; assay type: ADME, organism-based; conditions: in vivo
[3] = Plasma concentration in Lewis rat at 1 mg/kg, po measured at 4 hrs; assay type: ADME, organism-based
Mus musculus [4] = assay: Reduction in clinical score in po dosed C57BL/6 mouse experimental autoimmune encephalomyelitis model of multiple sclerosis administered as qd for 24 days started from day of immunization measured 3 times per week of compound dosing; assay type: functional; conditions: C57BL/6, po, 576 h
[5] = Plasma concentration in Lewis rat at 0.3 mg/kg, po measured at 24 hrs; assay type: ADME, organism-based
[6] = Mean residence time in rat at 2 mg/kg, iv; assay type: ADME, organism-based; conditions: in vivo
[7] = molecular target: T1, Sphingosine 1-phosphate receptor 1 (Homo sapiens, UniProt P21453); assay: Induction of internalization of C-terminal GFP-fused human S1P1 receptor expressed in CHO […] assessed as remaining receptor level in cell membrane at 4.6 nM preincubated for 50 mins followed by compound washout measured at 16 hrs relative to control; assay type: cell-based
T1 sequence (P21453 whole entry, the tested form may be a part): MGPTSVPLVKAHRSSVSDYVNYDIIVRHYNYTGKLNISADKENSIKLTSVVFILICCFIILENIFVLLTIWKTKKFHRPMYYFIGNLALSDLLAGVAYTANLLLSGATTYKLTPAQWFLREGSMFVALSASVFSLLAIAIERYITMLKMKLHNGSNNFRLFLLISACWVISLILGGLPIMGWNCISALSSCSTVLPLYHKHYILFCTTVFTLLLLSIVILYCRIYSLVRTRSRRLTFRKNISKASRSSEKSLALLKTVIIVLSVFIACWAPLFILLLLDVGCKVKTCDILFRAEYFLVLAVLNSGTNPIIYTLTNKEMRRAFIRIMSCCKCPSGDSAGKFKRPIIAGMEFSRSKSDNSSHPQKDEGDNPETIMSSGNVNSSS

Cytochrome P450 2D6 = Cytochrome P450 2D6 (Homo sapiens, UniProt P10635); assay: Inhibition of CYP2D6 (unknown origin); assay type: ADME
Sequence of Cytochrome P450 2D6 (P10635 whole entry): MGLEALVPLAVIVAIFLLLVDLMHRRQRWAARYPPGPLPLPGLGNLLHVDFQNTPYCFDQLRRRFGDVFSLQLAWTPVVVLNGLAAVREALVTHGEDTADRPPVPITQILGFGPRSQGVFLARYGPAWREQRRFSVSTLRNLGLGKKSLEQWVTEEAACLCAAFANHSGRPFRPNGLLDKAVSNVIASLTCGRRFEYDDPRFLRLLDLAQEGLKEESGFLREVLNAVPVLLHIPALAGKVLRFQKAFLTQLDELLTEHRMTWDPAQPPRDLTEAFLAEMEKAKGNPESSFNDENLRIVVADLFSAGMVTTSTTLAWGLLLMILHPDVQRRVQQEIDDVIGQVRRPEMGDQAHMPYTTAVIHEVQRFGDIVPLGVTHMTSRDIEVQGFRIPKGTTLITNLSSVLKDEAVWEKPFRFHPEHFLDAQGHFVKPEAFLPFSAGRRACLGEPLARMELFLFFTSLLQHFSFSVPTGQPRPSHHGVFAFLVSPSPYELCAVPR

Rattus norvegicus [8] = assay: Antiarthritic activity in complete Freund's adjuvant-induced Lewis rat arthritis model assessed as suppression of paw swelling at 0.03 mg/kg, po qd for 21 days started from day of immunization measured 3 times per week of compound dosing by water displacement plethysmometry; assay type: functional, organism-based
Mus musculus [9] = assay: AUC in mouse at 10 mg/kg, po; assay type: ADME, organism-based; conditions: in vivo
Plasma [10] = assay: Ratio drug level in Lewis rat plasma at 0.3 mg/kg, po at 4 hrs to drug level in Lewis rat plasma at 0.3 mg/kg, po at 24 hrs; assay type: ADME, organism-based; conditions: in vivo
[11] = Plasma concentration in Lewis rat at 0.03 mg/kg, po measured at 4 hrs; assay type: ADME, organism-based
[12] = Plasma protein binding in monkey; assay type: ADME, cell-free, Macaca mulatta; conditions: rhesus monkey, read-out: PPB (converted)
[13] = Cmax in dog at 1 mg/kg, po; assay type: ADME, organism-based, Canis lupus familiaris; design: dose 1 mg/kg, route oral; conditions: in vivo
Mus musculus [14] = assay: Inhibition of demyelination in spinal cord of po dosed C57BL/6 mouse experimental autoimmune encephalomyelitis model of multiple sclerosis administered as qd for 24 days started from day of immunization; assay type: functional, organism-based
Rattus norvegicus [15] = assay: Antiarthritic activity in po dosed complete Freund's adjuvant-induced Lewis rat arthritis model assessed as inhibition of paw inflammation administered as qd for 21 days started from day of immunization; assay type: functional, organism-based
Mus musculus [16] = assay: Oral bioavailability in mouse at 10 mg/kg; assay type: ADME, organism-based; conditions: in vivo
[17] = Volume of distribution at steady state in cynomolgus monkey at 2 mg/kg, iv; assay type: ADME, organism-based, Macaca fascicularis; conditions: in vivo, read-out: Vdss
Rattus norvegicus [18] = assay: Reduction of blood lymphocyte level in Lewis rat at 0.3 mg/kg, po measured at 4 hrs by hematology analyzer relative to vehicle-treated control; assay type: functional; design: scale not given: the % may be the effect or the level left
[19] = Oral bioavailability in dog at 1 mg/kg; assay type: ADME, organism-based, Canis lupus familiaris; conditions: in vivo
Canis familiaris = assay: Clearance in dog at 1 mg/kg, iv relative to hepatic blood flow; assay type: ADME, organism-based, Canis lupus familiaris, Liver; conditions: in vivo
[20] = Clearance in dog at 1 mg/kg, iv; assay type: ADME, organism-based, Canis lupus familiaris; conditions: in vivo
[21] = Half life in dog at 1 mg/kg, iv; assay type: ADME, organism-based, Canis lupus familiaris; conditions: in vivo
Cytochrome P450 3A4 = Cytochrome P450 3A4 (Homo sapiens, UniProt P08684); assay: Inhibition of CYP3A4 (unknown origin); assay type: ADME
Sequence of Cytochrome P450 3A4 (P08684 whole entry): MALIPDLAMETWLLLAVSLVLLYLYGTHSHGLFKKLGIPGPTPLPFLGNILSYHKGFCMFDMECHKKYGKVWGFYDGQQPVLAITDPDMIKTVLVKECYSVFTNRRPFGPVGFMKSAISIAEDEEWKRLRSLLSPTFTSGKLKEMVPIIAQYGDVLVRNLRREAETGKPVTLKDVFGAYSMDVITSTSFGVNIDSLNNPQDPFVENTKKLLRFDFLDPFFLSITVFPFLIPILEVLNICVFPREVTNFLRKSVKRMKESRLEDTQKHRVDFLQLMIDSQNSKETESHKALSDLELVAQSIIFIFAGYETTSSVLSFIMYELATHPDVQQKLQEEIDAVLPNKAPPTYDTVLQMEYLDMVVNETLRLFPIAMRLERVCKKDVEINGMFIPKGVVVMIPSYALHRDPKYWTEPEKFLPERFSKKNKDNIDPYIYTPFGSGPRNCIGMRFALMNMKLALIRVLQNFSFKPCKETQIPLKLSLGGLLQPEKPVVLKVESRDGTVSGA

[22] = Volume of distribution at steady state in mouse at 2 mg/kg, iv; assay type: ADME, organism-based; conditions: in vivo, read-out: Vdss
[23] = Plasma protein binding in mouse; assay type: ADME, cell-free; conditions: read-out: PPB
Cytochrome P450 2C9 = Cytochrome P450 2C9 (Homo sapiens, UniProt P11712); assay: Inhibition of CYP2C9 (unknown origin); assay type: ADME
Sequence of Cytochrome P450 2C9 (P11712 whole entry): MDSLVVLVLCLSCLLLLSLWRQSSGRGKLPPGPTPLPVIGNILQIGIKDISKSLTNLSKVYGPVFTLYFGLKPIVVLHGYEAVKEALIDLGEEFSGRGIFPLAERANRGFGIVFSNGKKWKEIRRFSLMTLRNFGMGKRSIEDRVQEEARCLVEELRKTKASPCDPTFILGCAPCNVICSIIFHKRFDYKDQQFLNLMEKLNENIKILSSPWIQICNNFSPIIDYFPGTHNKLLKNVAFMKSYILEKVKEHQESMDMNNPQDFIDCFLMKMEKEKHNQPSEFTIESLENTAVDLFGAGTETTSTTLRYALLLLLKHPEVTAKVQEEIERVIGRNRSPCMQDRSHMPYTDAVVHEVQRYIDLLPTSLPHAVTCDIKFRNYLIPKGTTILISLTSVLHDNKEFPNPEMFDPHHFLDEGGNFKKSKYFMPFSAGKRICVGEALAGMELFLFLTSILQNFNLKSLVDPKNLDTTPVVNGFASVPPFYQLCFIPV

Mus musculus [24] = assay: Clearance in mouse at 2 mg/kg, iv relative to hepatic blood flow; assay type: ADME, organism-based; conditions: in vivo
[25] = Plasma protein binding in human; assay type: ADME, cell-free; conditions: read-out: PPB (converted)
[26] = Volume of distribution at steady state in dog at 1 mg/kg, iv; assay type: ADME, organism-based, Canis lupus familiaris; conditions: in vivo, read-out: Vdss
Rattus norvegicus [27] = assay: Ratio of Cmax to Cmin in rat at 5 mg/kg, po; assay type: ADME, organism-based; conditions: in vivo
[28] = Volume of distribution at steady state in rat at 2 mg/kg, iv; assay type: ADME, organism-based; conditions: in vivo, read-out: Vdss
[29] = molecular target: Sphingosine 1-phosphate receptor 3 (Homo sapiens, UniProt Q99500); assay: Agonist activity at human S1P3 receptor expressed in EDG3-Ga15-bla HEK293T cell membranes after 45 mins by [35S]-GTPgammaS binding assay; assay type: functional, HEK-293T
Sequence of Sphingosine 1-phosphate receptor 3 (Q99500 whole entry): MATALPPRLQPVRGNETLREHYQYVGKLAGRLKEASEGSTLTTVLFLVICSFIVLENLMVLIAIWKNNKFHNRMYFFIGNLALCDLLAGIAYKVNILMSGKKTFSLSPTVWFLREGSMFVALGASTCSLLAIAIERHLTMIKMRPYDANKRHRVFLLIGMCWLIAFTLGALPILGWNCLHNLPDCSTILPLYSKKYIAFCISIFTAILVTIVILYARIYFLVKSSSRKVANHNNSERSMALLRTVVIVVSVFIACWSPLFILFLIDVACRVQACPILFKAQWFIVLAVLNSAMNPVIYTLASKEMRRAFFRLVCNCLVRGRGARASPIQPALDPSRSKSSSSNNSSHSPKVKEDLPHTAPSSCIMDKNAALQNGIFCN

[30] = Clearance in rat at 2 mg/kg, iv; assay type: ADME, organism-based; conditions: in vivo
Rattus norvegicus [31] = assay: Reduction of blood lymphocyte level in Lewis rat at 1 mg/kg, po measured at 24 hrs by hematology analyzer relative to vehicle-treated control; assay type: functional; design: scale not given: the % may be the effect or the level left
[32] = Mean residence time in dog at 1 mg/kg, iv; assay type: ADME, organism-based, Canis lupus familiaris; conditions: in vivo
[33] = Tmax in cynomolgus monkey at 5 mg/kg, po; assay type: ADME, organism-based, Macaca fascicularis; conditions: in vivo
[34] = Plasma concentration in Lewis rat at 0.3 mg/kg, po measured at 4 hrs; assay type: ADME, organism-based
Salmonella typhi = assay: Mutagenicity in Salmonella typhi by Ames test; assay type: toxicity, organism-based; conditions: salmonella enterica subsp. enterica […]
[35] = Plasma concentration in Lewis rat at 0.03 mg/kg, po measured at 24 hrs; assay type: ADME, organism-based
Rattus norvegicus [36] = assay: Antiarthritic activity in complete Freund's adjuvant-induced Lewis rat arthritis model assessed as suppression of paw swelling at 0.1 mg/kg, po qd for 21 days started from day of immunization measured 3 times per week of compound dosing by water displacement plethysmometry relative to control; assay type: functional
[37] = molecular target: T1, Sphingosine 1-phosphate receptor 1; assay: Induction of internalization of C-terminal GFP-fused human S1P1 receptor expressed in CHO […] at 4.6 nM after 50 mins relative to control; assay type: cell-based
[38] = Plasma protein binding in rat; assay type: ADME, cell-free; conditions: read-out: PPB (converted)
Rattus norvegicus [39] = assay: Antiarthritic activity in complete Freund's adjuvant-induced Lewis rat arthritis model assessed as suppression of paw swelling at 0.5 to 3 mg/kg, po qd for 21 days started from day of immunization measured 3 times per week of compound dosing by water displacement plethysmometry; assay type: functional, organism-based
Rattus norvegicus [40] = assay: Reduction of blood lymphocyte level in Lewis rat at 1 mg/kg, po measured at 4 hrs by hematology analyzer relative to vehicle-treated control; assay type: functional; design: scale not given: the % may be the effect or the level left
[41] = AUC in cynomolgus monkey at 5 mg/kg, po; assay type: ADME, organism-based, Macaca fascicularis; conditions: in vivo
[42] = Permeability across apical to basolateral side in human Caco2 cells; assay type: ADME, cell-based; conditions: Caco-2, read-out: permeability
Plasma [43] = assay: Ratio drug level in Lewis rat plasma at 1 mg/kg, po at 4 hrs to drug level in Lewis rat plasma at 1 mg/kg, po at 24 hrs; assay type: ADME, organism-based; conditions: in vivo
Plasma [44] = assay: Ratio drug level in Lewis rat plasma at 0.03 mg/kg, po at 4 hrs to drug level in Lewis rat plasma at 0.03 mg/kg, po at 24 hrs; assay type: ADME, organism-based; conditions: in vivo
Homo sapiens = species on record: Homo sapiens; assay: Selectivity ratio of EC50 for human S1P3 receptor to EC50 for human S1P1 receptor
[45] = molecular target: T1, Sphingosine 1-phosphate receptor 1; assay: Agonist activity at human S1P1 receptor expressed in CHO cell membranes after 45 mins by [35S]-GTPgammaS binding assay; assay type: functional

O=C(O)C1CN(Cc2ccc(-c3noc(-c4onc(-c5ccccc5)c4C(F)(F)F)n3)cc2)C1
CL (Cynomolgus monkey): 12%
half-life [1]: 10 h
half-life [2]: 9.8 h
concentration at 4 h [3]: 2100 nM
ED50 (Mus musculus [4]): 0.02 mg/kg
concentration at 24 h [5]: 25 nM
MRT [6]: 14 h
Activity [7]: 40%
IC50 (Cytochrome P450 2D6): > 40000 nM
Activity (Rattus norvegicus [8]): inactive
AUC (Mus musculus [9]): 250 µM·h
Ratio (Plasma [10]): 7
concentration at 4 h [11]: 20 nM
fraction unbound [12]: 0.007
Cmax [13]: 1300 nM
inhibition (Mus musculus [14]): Dose-dependent effect
inhibition (Rattus norvegicus [15]): Dose-dependent effect
F (Mus musculus [16]): 71%
Vd [17]: 0.6 L/kg
Activity (Rattus norvegicus [18]): 82%
bioavailability [19]: 45%
CL (Canis familiaris): 5.2%
clearance [20]: 1.6 mL/min/kg
half-life [21]: 7.4 h
IC50 (Cytochrome P450 3A4): > 40000 nM
Vd [22]: 0.2 L/kg
fraction unbound [23]: 0.001
IC50 (Cytochrome P450 2C9): > 40000 nM
CL (Mus musculus [24]): 0.3%
fraction unbound [25]: 0.003
Vd [26]: 0.7 L/kg
Ratio (Rattus norvegicus [27]): 6
Vd [28]: 1.4 L/kg
EC50 [29]: 1600 nM
clearance [30]: 1.7 mL/min/kg
Activity (Rattus norvegicus [31]): 91%
MRT [32]: 8.9 h
Tmax [33]: 1 h
concentration at 4 h [34]: 180 nM
Activity (Salmonella typhi): Non-toxic
concentration at 24 h [35]: 4 nM
Activity (Rattus norvegicus [36]): >50%
Activity [37]: > 90%
fraction unbound [38]: 0.006
Activity (Rattus norvegicus [39]): Active
Activity (Rattus norvegicus [40]): 78%
AUC [41]: 25 µM·h
Papp A→B [42]: 10.4 ×10⁻⁶ cm/s
Ratio (Plasma [43]): 3
Ratio (Plasma [44]): 5
Ratio EC50 (Homo sapiens): 3400
EC50 [45]: 0.47 nM
